Data: ChEMBL document CHEMBL4002623, “Synthesis and in vitro activity of dicationic indolyl diphenyl ethers as novel potent antibiotic agents against drug-resistant bacteria” (Bioorg Med Chem Lett, 2017)
In brackets after ≈: the same amount, converted by molar mass.

Experiments:
[1] = tested on: Escherichia coli; assay: Antibacterial activity against extended-spectrum beta-lactamase-negative Escherichia coli ATCC 25922 by agar dilution method; type: functional
[2] = tested on: Staphylococcus aureus; assay: Antibacterial activity against methicillin-resistant Staphylococcus aureus 09-13 by agar dilution method; type: functional
[3] = tested on: Staphylococcus epidermidis; assay: Antibacterial activity against methicillin-resistant Staphylococcus epidermidis 09-3 by agar dilution method; type: functional
[4] = tested on: Citrobacter freundii; assay: Antibacterial activity against Citrobacter freundii ATCC 43864 by agar dilution method; type: functional
[5] = tested on: Enterococcus faecium; assay: Antibacterial activity against vancomycin-resistant Enterococcus faecium 05-8 by agar dilution method; type: functional
[6] = tested on: Enterococcus faecium; assay: Antibacterial activity against vancomycin-resistant Enterococcus faecium ATCC 700221 by agar dilution method; type: functional
[7] = tested on: Enterococcus faecalis; assay: Antibacterial activity against vancomycin-resistant Enterococcus faecalis ATCC 51299 by agar dilution method; type: functional
[8] = tested on: Staphylococcus epidermidis; assay: Antibacterial activity against methicillin-sensitive Staphylococcus epidermidis ATCC 12228 by agar dilution method; type: functional
[9] = tested on: Pseudomonas aeruginosa; assay: Antibacterial activity against Pseudomonas aeruginosa PAO1 by agar dilution method; type: functional
[10] = tested on: Escherichia coli; assay: Antibacterial activity against extended-spectrum beta-lactamase-negative Escherichia coli 1515 by agar dilution method; type: functional
[11] = tested on: Escherichia coli; assay: Antibacterial activity against extended-spectrum beta-lactamase-negative Escherichia coli 09-20 by agar dilution method; type: functional
[12] = tested on: Klebsiella pneumoniae; assay: Antibacterial activity against extended-spectrum beta-lactamase-positive Klebsiella pneumoniae 09-25 by agar dilution method; type: functional
[13] = tested on: Klebsiella pneumoniae; assay: Antibacterial activity against extended-spectrum beta-lactamase-negative Klebsiella pneumoniae 09-8 by agar dilution method; type: functional
[14] = tested on: Providencia rettgeri; assay: Antibacterial activity against Providencia rettgeri ATCC 31052 by agar dilution method; type: functional
[15] = tested on: Enterobacter cloacae; assay: Antibacterial activity against Enterobacter cloacae 45301 by agar dilution method; type: functional
[16] = tested on: Serratia marcescens; assay: Antibacterial activity against Serratia marcescens 41002 by agar dilution method; type: functional
[17] = tested on: Enterococcus faecalis; assay: Antibacterial activity against vancomycin-sensitive Enterococcus faecalis ATCC 29212 by agar dilution method; type: functional
[18] = tested on: Staphylococcus aureus; assay: Antibacterial activity against methicillin-resistant Staphylococcus aureus ATCC 33591 by agar dilution method; type: functional
[19] = Cytotoxicity against HEK293T cells after 48 hrs by MTS assay; type: cell-based, HEK-293T; conditions: human
[20] = tested on: Staphylococcus aureus; assay: Antibacterial activity against methicillin-sensitive Staphylococcus aureus ATCC 29213 by agar dilution method; type: functional
[21] = tested on: Pseudomonas aeruginosa; assay: Antibacterial activity against Pseudomonas aeruginosa 09-14 by agar dilution method; type: functional
[22] = tested on: Enterococcus faecalis; assay: Antibacterial activity against vancomycin-sensitive Enterococcus faecalis 09-8 by agar dilution method; type: functional
[23] = tested on: Klebsiella aerogenes; assay: Antibacterial activity against Enterobacter aerogenes 45102 by agar dilution method; type: functional
[24] = tested on: Acinetobacter calcoaceticus; assay: Antibacterial activity against Acinetobacter calcoaceticus ATCC 19606 by agar dilution method; type: functional
[25] = tested on: Staphylococcus epidermidis; assay: Antibacterial activity against methicillin-sensitive Staphylococcus epidermidis 09-9 by agar dilution method; type: functional
[26] = tested on: Proteus vulgaris; assay: Antibacterial activity against Proteus vulgaris ATCC 29905 by agar dilution method; type: functional
[27] = tested on: Klebsiella pneumoniae; assay: Antibacterial activity against extended-spectrum beta-lactamase-negative Klebsiella pneumoniae 7 by agar dilution method; type: functional
[28] = tested on: Proteus mirabilis; assay: Antibacterial activity against Proteus mirabilis 09-1 by agar dilution method; type: functional
[29] = tested on: Klebsiella pneumoniae; assay: Antibacterial activity against extended-spectrum beta-lactamase-positive Klebsiella pneumoniae ATCC 700603 by agar dilution method; type: functional
[30] = tested on: Klebsiella pneumoniae; assay: Antibacterial activity against Klebsiella pneumoniae ATCC BAA-2146 expressing NDM-1 by agar dilution method; type: functional
[31] = tested on: Pseudomonas aeruginosa; assay: Antibacterial activity against Pseudomonas aeruginosa ATCC 27853 by agar dilution method; type: functional
[32] = tested on: Salmonella typhi; assay: Antibacterial activity against Salmonella typhi H901 by agar dilution method; type: functional, Salmonella enterica subsp. enterica serovar Typhi; conditions: Salmonella enterica
[33] = tested on: Staphylococcus aureus; assay: Antibacterial activity against methicillin-sensitive Staphylococcus aureus 09-6 by agar dilution method; type: functional
[34] = tested on: Enterococcus faecium; assay: Antibacterial activity against vancomycin-sensitive Enterococcus faecium 09-10 by agar dilution method; type: functional
[35] = tested on: Staphylococcus aureus; assay: Antibacterial activity against methicillin-sensitive Staphylococcus aureus 15 by agar dilution method; type: functional
[36] = tested on: Morganella morganii; assay: Antibacterial activity against Morganella morganii ATCC 25830 by agar dilution method; type: functional
[37] = tested on: Escherichia coli; assay: Antibacterial activity against extended-spectrum beta-lactamase-positive Escherichia coli 09-1 by agar dilution method; type: functional
[38] = tested on: Enterococcus faecalis; assay: Antibacterial activity against vancomycin-resistant Enterococcus faecalis 09-9 by agar dilution method; type: functional

Question: Which MIC [1] does the source give for `CC(C)NC(=N)c1ccc2cc(-c3ccc(Oc4ccc(-c5cc6ccc(C(=N)NC(C)C)cc6[nH]5)cc4)cc3)[nH]c2c1` here?
Answer: 16 mg/L (≈ 28.1 µM)

Question: What about the MIC [2] of the same compound?
Answer: 1 mg/L (≈ 1.76 µM)

Question: And the MIC [3]?
Answer: 1 mg/L (≈ 1.76 µM)

Question: And the MIC [4]?
Answer: 64 mg/L (≈ 113 µM)

Question: What about the MIC [5] of the same compound?
Answer: 1 mg/L (≈ 1.76 µM)

Question: What about the MIC [6] of the same compound?
Answer: 1 mg/L (≈ 1.76 µM)

Question: And the MIC [7]?
Answer: 2 mg/L (≈ 3.52 µM)

Question: And the MIC [8]?
Answer: 1 mg/L (≈ 1.76 µM)

Question: What about the MIC [9] of the same compound?
Answer: > 128 mg/L

Question: And the MIC [10]?
Answer: 32 mg/L (≈ 56.3 µM)

Question: And the MIC [11]?
Answer: 32 mg/L (≈ 56.3 µM)

Question: And the MIC [12]?
Answer: 64 mg/L (≈ 113 µM)

Question: And the MIC [13]?
Answer: 64 mg/L (≈ 113 µM)

Question: What about the MIC [14] of the same compound?
Answer: 64 mg/L (≈ 113 µM)

Question: What about the MIC [15] of the same compound?
Answer: 64 mg/L (≈ 113 µM)

Question: And the MIC [16]?
Answer: 64 mg/L (≈ 113 µM)

Question: What about the MIC [17] of the same compound?
Answer: 1 mg/L (≈ 1.76 µM)

Question: What about the MIC [18] of the same compound?
Answer: 1 mg/L (≈ 1.76 µM)

Question: And the CC50 at 48 h [19]?
Answer: 7.3 mg/L (≈ 12.8 µM)

Question: And the MIC [20]?
Answer: 1 mg/L (≈ 1.76 µM)

Question: And the MIC [21]?
Answer: 64 mg/L (≈ 113 µM)

Question: And the MIC [22]?
Answer: 1 mg/L (≈ 1.76 µM)

Question: And the MIC [23]?
Answer: 64 mg/L (≈ 113 µM)

Question: What about the MIC [24] of the same compound?
Answer: 128 mg/L (≈ 225 µM)

Question: And the MIC [25]?
Answer: 1 mg/L (≈ 1.76 µM)

Question: And the MIC [26]?
Answer: 64 mg/L (≈ 113 µM)

Question: And the MIC [27]?
Answer: 64 mg/L (≈ 113 µM)

Question: And the MIC [28]?
Answer: 64 mg/L (≈ 113 µM)

Question: What about the MIC [29] of the same compound?
Answer: 64 mg/L (≈ 113 µM)

Question: What about the MIC [30] of the same compound?
Answer: 64 mg/L (≈ 113 µM)

Question: And the MIC [31]?
Answer: 64 mg/L (≈ 113 µM)

Question: And the MIC [32]?
Answer: 32 mg/L (≈ 56.3 µM)

Question: What about the MIC [33] of the same compound?
Answer: 1 mg/L (≈ 1.76 µM)

Question: And the MIC [34]?
Answer: 2 mg/L (≈ 3.52 µM)

Question: And the MIC [35]?
Answer: 1 mg/L (≈ 1.76 µM)

Question: And the MIC [36]?
Answer: 16 mg/L (≈ 28.1 µM)

Question: And the MIC [37]?
Answer: 32 mg/L (≈ 56.3 µM)

Question: And the MIC [38]?
Answer: 2 mg/L (≈ 3.52 µM)

Question: For `N=C(c1ccc2cc(-c3ccc(Oc4ccc(-c5cc6ccc(C(=N)N7CCC(N8CCCC8)CC7)cc6[nH]5)cc4)cc3)[nH]c2c1)N1CCC(N2CCCC2)CC1`, which MIC [1] is on record?
Answer: 32 mg/L (≈ 42.2 µM)

Question: What about the MIC [2] of the same compound?
Answer: 8 mg/L (≈ 10.5 µM)

Question: What about the MIC [3] of the same compound?
Answer: 8 mg/L (≈ 10.5 µM)

Question: What about the MIC [4] of the same compound?
Answer: > 128 mg/L

Question: What about the MIC [5] of the same compound?
Answer: 8 mg/L (≈ 10.5 µM)

Question: What about the MIC [6] of the same compound?
Answer: 8 mg/L (≈ 10.5 µM)

Question: What about the MIC [7] of the same compound?
Answer: 8 mg/L (≈ 10.5 µM)

Question: And the MIC [8]?
Answer: 3 to 8 mg/L (≈ 3.95 to 10.5 µM)

Question: What about the MIC [9] of the same compound?
Answer: > 128 mg/L

Question: And the MIC [10]?
Answer: 64 mg/L (≈ 84.3 µM)

Question: What about the MIC [11] of the same compound?
Answer: 32 mg/L (≈ 42.2 µM)

Question: And the MIC [12]?
Answer: 128 mg/L (≈ 169 µM)

Question: And the MIC [13]?
Answer: 128 mg/L (≈ 169 µM)

Question: And the MIC [14]?
Answer: > 128 mg/L

Question: And the MIC [15]?
Answer: 64 mg/L (≈ 84.3 µM)

Question: What about the MIC [16] of the same compound?
Answer: > 128 mg/L

Question: What about the MIC [17] of the same compound?
Answer: 8 mg/L (≈ 10.5 µM)

Question: And the MIC [18]?
Answer: 8 mg/L (≈ 10.5 µM)

Question: What about the CC50 at 48 h [19] of the same compound?
Answer: 1.1 mg/L (≈ 1.45 µM)

Question: And the MIC [20]?
Answer: 8 mg/L (≈ 10.5 µM)

Question: What about the MIC [21] of the same compound?
Answer: > 128 mg/L

Question: And the MIC [22]?
Answer: 8 mg/L (≈ 10.5 µM)

Question: And the MIC [23]?
Answer: 128 mg/L (≈ 169 µM)

Question: What about the MIC [24] of the same compound?
Answer: > 128 mg/L

Question: And the MIC [25]?
Answer: 8 mg/L (≈ 10.5 µM)

Question: And the MIC [26]?
Answer: > 128 mg/L

Question: What about the MIC [27] of the same compound?
Answer: 128 mg/L (≈ 169 µM)

Question: And the MIC [28]?
Answer: > 128 mg/L

Question: And the MIC [29]?
Answer: > 128 mg/L

Question: And the MIC [30]?
Answer: 128 mg/L (≈ 169 µM)

Question: What about the MIC [31] of the same compound?
Answer: > 128 mg/L

Question: And the MIC [32]?
Answer: 32 mg/L (≈ 42.2 µM)

Question: What about the MIC [33] of the same compound?
Answer: 8 mg/L (≈ 10.5 µM)

Question: And the MIC [34]?
Answer: 8 mg/L (≈ 10.5 µM)

Question: And the MIC [35]?
Answer: 8 mg/L (≈ 10.5 µM)

Question: And the MIC [36]?
Answer: 128 mg/L (≈ 169 µM)

Question: What about the MIC [37] of the same compound?
Answer: 64 mg/L (≈ 84.3 µM)

Question: And the MIC [38]?
Answer: 16 mg/L (≈ 21.1 µM)
